Among the data in patent US20250249025A1, “DRUG DELIVERY CARRIER UTILIZING PROPERTY OF D-ALLOSE BEING UPTAKEN BY CANCER CELL, DRUG DELIVERY METHOD, AND COMPOSITION FOR TREATING RENAL CELL CARCINOMA” (NATIONAL UNIVERSITY CORPORATION KAGAWA UNIVERSITY, priority 2019, published 2025) are Viability values, retold here.

In the experiment the test system is renal cell carcinoma cell line (ACHN). Briefly: Cell survival assay (MTT assay), ACHN. The format is cell-based, human. Conditions: 10 mM, 25 mM and 50 mM in MEM, 24 hours, compared with Control (p<0.05), FIG. 1. The protocol: The antitumor effect of rare sugars was analyzed using the three human renal cell carcinoma cell lines (ACHN, Caki-I, and Caki-II) used in Example 1. As the rare sugars, used were the following ten rare sugars: L-allulose, D-allulose, D-allose, L-fructose, D-mannose, L-sorbose, D-tagatose, D-galactose, D-sorbose, and L-tagatose, while as monosaccharides not belonging to rare sugars, D-glucose and D-fructose were used.
As a medium, a minimum essential medium (MEM) containing 1000 mg/l of D-glucose was used. By adjusting it to contain 10 mM, 25 mM, and 50 mM of each of the monosaccharides or rare sugars and using thus-obtained MEMs [shown by (10), (25), and (50) in the drawing], an antitumor effect of the rare sugars was evaluated.
A 5.0×10^4 cells/ml of each of cell suspensions was formed using MEM. The resulting suspension (0.1 ml/well) was distributed in a 96-well plate, followed by culturing for 24 hours. […]
The MTT assay is one of test methods for measuring survival and makes use of a color reaction of an insoluble formazan dye (blue) caused by the reduction of MTT which is a tetrazolium salt. […] The cell viability is determined by measuring this color reaction with a microplate reader.

For `O=C[C@H](O)[C@H](O)[C@H](O)[C@H](O)CO` [D-allose], the Viability result is “significantly reduced the viability”.
